Compound: CC(C)C[C@H](NC(=O)[C@H](CCc1ccccc1)NC(=O)CN1CCOCC1)C(=O)N[C@@H](Cc1ccccc1)C(=O)N[C@@H](CC(C)C)C(=O)[C@@]1(C)CO1 [Carfilzomib] + CC(=O)c1c(C)c2cnc(Nc3ccc(N4CCNCC4)cn3)nc2n(C2CCCC2)c1=O [Palbociclib] (partner 0.5 µM)
Experiment: relative viability (nuclei count vs DMSO), 5 days (fraction); higher = more cells survive
Settings: first compound 0.001 µM
Outline: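 Dosing by pin tool came one day after lung cancer cell lines were seeded in 1536-well plates, using either one drug or a fixed anchor-drug dose plus five library-drug doses (not always all listed) in √10 steps. After 5 days, nuclei were counted on 4× images. Relative viability is treated-well nuclei count divided by vehicle-well nuclei count, and values are medians of duplicate plates.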

First: 201T
Second: A-427
The relative viability of the first is lower: 0.355 for the first, 0.543 for the second.

First: ABC-1
Second: BEN
The relative viability of the first is higher: 0.831 for the first, 0.491 for the second.

First: CAL-12T
Second: COR-L23
The relative viability of the first is higher: 0.507 for the first, 0.29 for the second.

First: COR-L 105
Second: ChaGo-K-1
The relative viability of the first is lower: 0.413 for the first, 0.926 for the second.

Going from EKVX to EMC-BAC-2, the relative viability rises from 0.369 to 0.531.

Compared with EPLC-272H, H3255 is higher in relative viability: 0.285 for the first, 0.334 for the second.

Compared with HARA, HCC-15 is higher in relative viability: 0.28 for the first, 0.706 for the second.

First: HCC-44
Second: HCC-78
The relative viability of the first is higher: 1.02 for the first, 0.431 for the second.

First: HCC-366
Second: HCC-827
The relative viability of the first is lower: 0.374 for the first, 0.499 for the second.

Compared with HOP-62, LC-2-ad is higher in relative viability: 0.44 for the first, 0.549 for the second.

Compared with LCLC-97TM1, LCLC-103H is higher in relative viability: 0.217 for the first, 0.415 for the second.

Compared with LK-2, NCI-H358 is lower in relative viability: 0.661 for the first, 0.139 for the second.

First: NCI-H522
Second: NCI-H650
The relative viability of the first is higher: 0.873 for the first, 0.331 for the second.

First: NCI-H661
Second: NCI-H1648
The relative viability of the first is higher: 0.423 for the first, 0.236 for the second.

Going from NCI-H2228 to NCI-H2342, the relative viability rises from 0.466 to 0.488.

Same assay, conditions: first compound 0.003162 µM

Going from 201T to A-427, the relative viability rises from 0.357 to 0.56.

First: ABC-1
Second: BEN
The relative viability of the first is higher: 0.736 for the first, 0.465 for the second.

Going from CAL-12T to COR-L23, the relative viability falls from 0.507 to 0.305.

Going from COR-L 105 to ChaGo-K-1, the relative viability rises from 0.414 to 0.931.

First: EKVX
Second: EMC-BAC-2
The relative viability of the first is lower: 0.474 for the first, 0.539 for the second.

Going from EPLC-272H to H3255, the relative viability falls from 0.337 to 0.331.

First: HARA
Second: HCC-15
The relative viability of the first is lower: 0.257 for the first, 0.688 for the second.

Compared with HCC-44, HCC-78 is lower in relative viability: 0.938 for the first, 0.454 for the second.

Compared with HCC-366, HCC-827 is higher in relative viability: 0.361 for the first, 0.459 for the second.

First: HOP-62
Second: LC-2-ad
The relative viability of the first is higher: 0.496 for the first, 0.495 for the second.

Going from LCLC-97TM1 to LCLC-103H, the relative viability rises from 0.214 to 0.47.

Compared with LK-2, NCI-H358 is lower in relative viability: 0.659 for the first, 0.117 for the second.

Going from NCI-H522 to NCI-H650, the relative viability falls from 0.977 to 0.362.

Compared with NCI-H661, NCI-H1648 is lower in relative viability: 0.414 for the first, 0.23 for the second.

Compared with NCI-H2228, NCI-H2342 is lower in relative viability: 0.886 for the first, 0.57 for the second.

Cell Line SW 900 has a relative viability of 0.51.

Same assay, conditions: first compound 0.01 µM

Compared with 201T, A-427 is higher in relative viability: 0.383 for the first, 0.515 for the second.

First: ABC-1
Second: BEN
The relative viability of the first is lower: 0.441 for the first, 0.455 for the second.

Compared with CAL-12T, COR-L23 is lower in relative viability: 0.586 for the first, 0.211 for the second.

Going from COR-L 105 to ChaGo-K-1, the relative viability rises from 0.35 to 0.907.

Compared with EKVX, EMC-BAC-2 is higher in relative viability: 0.427 for the first, 0.51 for the second.

Going from EPLC-272H to H3255, the relative viability falls from 0.317 to 0.309.

First: HARA
Second: HCC-15
The relative viability of the first is lower: 0.306 for the first, 0.751 for the second.

Going from HCC-44 to HCC-78, the relative viability falls from 0.999 to 0.528.

First: HCC-366
Second: HCC-827
The relative viability of the first is lower: 0.396 for the first, 0.72 for the second.

Compared with HOP-62, LC-2-ad is higher in relative viability: 0.41 for the first, 0.488 for the second.

Compared with LCLC-97TM1, LCLC-103H is higher in relative viability: 0.24 for the first, 0.465 for the second.

Compared with LK-2, NCI-H358 is lower in relative viability: 0.846 for the first, 0.114 for the second.

First: NCI-H522
Second: NCI-H650
The relative viability of the first is higher: 0.848 for the first, 0.367 for the second.

Compared with NCI-H661, NCI-H1648 is lower in relative viability: 0.472 for the first, 0.227 for the second.

Going from NCI-H2228 to NCI-H2342, the relative viability rises from 0.557 to 0.58.

SW 900 was tested, and the relative viability was 0.288.

Same assay, conditions: first compound 0.03162 µM

Going from 201T to A-427, the relative viability rises from 0.345 to 0.509.

Compared with ABC-1, BEN is higher in relative viability: 0.273 for the first, 0.499 for the second.

Compared with CAL-12T, COR-L23 is lower in relative viability: 0.165 for the first, 0.0606 for the second.

Going from COR-L 105 to ChaGo-K-1, the relative viability falls from 0.317 to 0.313.

First: EMC-BAC-2
Second: EPLC-272H
The relative viability of the first is higher: 0.455 for the first, 0.114 for the second.

Compared with H3255, HARA is lower in relative viability: 0.231 for the first, 0.182 for the second.

Compared with HCC-15, HCC-44 is higher in relative viability: 0.61 for the first, 0.999 for the second.

First: HCC-78
Second: HCC-366
The relative viability of the first is higher: 0.439 for the first, 0.327 for the second.

Compared with HCC-827, HOP-62 is lower in relative viability: 0.459 for the first, 0.19 for the second.

Going from LC-2-ad to LCLC-97TM1, the relative viability falls from 0.481 to 0.0666.

Going from LCLC-103H to LK-2, the relative viability falls from 0.494 to 0.116.

Compared with NCI-H358, NCI-H522 is higher in relative viability: 0.0724 for the first, 1.08 for the second.

Compared with NCI-H650, NCI-H661 is higher in relative viability: 0.224 for the first, 0.398 for the second.

Going from NCI-H1648 to NCI-H2228, the relative viability falls from 0.288 to 0.104.

Compared with NCI-H2342, SW 900 is lower in relative viability: 0.576 for the first, 0.19 for the second.

Same assay, conditions: first compound 0.1 µM

First: 201T
Second: A-427
The relative viability of the first is higher: 0.31 for the first, 0.188 for the second.

First: ABC-1
Second: BEN
The relative viability of the first is lower: 0.253 for the first, 0.319 for the second.

Compared with CAL-12T, COR-L23 is lower in relative viability: 0.145 for the first, 0.064 for the second.

Compared with COR-L 105, ChaGo-K-1 is lower in relative viability: 0.329 for the first, 0.153 for the second.

Compared with EKVX, EMC-BAC-2 is higher in relative viability: 0.137 for the first, 0.316 for the second.

First: EPLC-272H
Second: H3255
The relative viability of the first is lower: 0.0482 for the first, 0.264 for the second.

Compared with HARA, HCC-15 is higher in relative viability: 0.0965 for the first, 0.206 for the second.

First: HCC-44
Second: HCC-78
The relative viability of the first is higher: 0.69 for the first, 0.348 for the second.

Going from HCC-366 to HCC-827, the relative viability rises from 0.0404 to 0.159.

Going from HOP-62 to LC-2-ad, the relative viability rises from 0.0616 to 0.32.

Going from LCLC-97TM1 to LCLC-103H, the relative viability rises from 0.0679 to 0.416.

Compared with LK-2, NCI-H358 is lower in relative viability: 0.106 for the first, 0.0923 for the second.

Compared with NCI-H522, NCI-H650 is lower in relative viability: 0.274 for the first, 0.14 for the second.

First: NCI-H661
Second: NCI-H1648
The relative viability of the first is higher: 0.318 for the first, 0.255 for the second.

First: NCI-H2228
Second: NCI-H2342
The relative viability of the first is lower: 0.105 for the first, 0.44 for the second.
